Test results from US20210228562A1, “IRAK DEGRADERS AND USES THEREOF” (Kymera Therapeutics, Inc., priority 2019, published 2021).

What was measured:
Format in all cases: cell-based
IRAK4 = target: T1, IRAK4 (Homo sapiens, UniProt Q9NWZ3); assay: IRAK4 MSD Degradation in OCI-LY10; conditions: OCI-LY10 cells, 24 hrs incubation; read-out: IRAK4 degradation in OCI-LY10 at 24 hrs: DC50
T1 construct: endogenous in cells; host or cells: OCI-LY10
T1 sequence (Q9NWZ3 1-460): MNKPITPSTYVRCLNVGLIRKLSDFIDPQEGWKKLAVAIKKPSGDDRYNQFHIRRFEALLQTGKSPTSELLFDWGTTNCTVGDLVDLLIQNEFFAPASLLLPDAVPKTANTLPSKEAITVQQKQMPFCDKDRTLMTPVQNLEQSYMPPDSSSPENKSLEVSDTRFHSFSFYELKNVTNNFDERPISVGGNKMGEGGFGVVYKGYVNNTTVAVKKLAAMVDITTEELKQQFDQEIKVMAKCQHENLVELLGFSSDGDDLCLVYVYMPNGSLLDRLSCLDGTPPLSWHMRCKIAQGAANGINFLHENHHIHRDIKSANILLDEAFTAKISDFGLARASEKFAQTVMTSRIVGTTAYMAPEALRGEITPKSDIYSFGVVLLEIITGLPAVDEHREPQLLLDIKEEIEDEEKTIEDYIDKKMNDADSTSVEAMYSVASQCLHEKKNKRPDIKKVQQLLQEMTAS
Method: Degradation of IRAK4 in OCI-LY10 was quantitatively measured using Meso Scale Discovery technology. OCI-LY10 cells were seeded in 96-well plates (Corning 3799) with a density of 300,000 cells per well in 100 μL fresh media. Compounds were then added to the assay plates with a final top concentration of 1 to 10 μM in a 1:3 dilution series with total of 8 doses. The assay plates were then incubated for 4 to 24 hours at 37° C. under 5% CO2. The assay plates were then centrifuged for 5 minutes and the cell pellets were treated with 100 μL/well RIPA lysis buffer (Boston BioProducts BP-115D) with proteinase inhibitors. To prepare MSD assay plates (Meso Scale Discovery Catalog number L15XA-3), the plates were coated with 2 μg/mL capture antibody (mouse Anti-IRAK4 antibody [2H9], ab119942) in PBS, at 40 μL/well. The plates were then incubated overnight at 4° C., washed 3 times with 150 μL/well TBST buffer (Cell Signaling Technology, Catalog number 9997S) and blocked with 150 μL/well blocking buffer (Meso Scale Discovery Catalog number R93BA-4). Cell lysates were then added to MSD assay plates and the plates were incubated at room temperature for 1 hour. The plates were then washed 3 times with 150 μL/well TBST buffer and 25 μL/well primary detection antibody (rabbit Anti-IRAK4 antibody [Y279], from Abcam. Catalog number ab32511, 1 μg/mL). The assay plates were then incubated at room temperature for 1 hour, washed 3 times with 150 μL/well TBST buffer and 25 μL/well secondary detection antibody, SULFO-TAG anti-rabbit antibody were added (anti rabbit antibody from Meso Scale Discovery, Catalog number R32AB-1, 1 μg/mL). The assay plates were then incubated at room temperature for 1 hour, washed 3 times with 150 μL/well TBST buffer, and 150 μL/well MSD reading buffer (Meso Scale Discovery catalog number R92TC-2) was added. The plates were then analyzed by a MSD reader (Meso Scale Discovery, Model Quick Plex SQ 120). The data was then analyzed by software Prism 7.0 from GraphPad and the dose-depended IRAK4 degradation were fit using a three-parameter logistic equation to calculate DC50.

OCI-LY10 cells = assay: CTG Cell Viability Assay - OCI-LY10; conditions: Homo sapiens, 96 h, CellTiter-Glo, 4 days incubation
Method: Compound-mediated viability effect on OCI-LY10 or SUDHL-2 was quantitatively determined using the CellTiter-Glo® Luminescent Cell Viability Assay kit from Promega (Catalog number G7570) following manufacturer's recommended procedures. Briefly, OCI-LY10 or SUDHL-2 cells were seeded into 384 well plates (Grenier Bio-One, Catalog number 781080) with a density of 10,000 cells per well. Compounds were then added to the assay plate with final top concentration of 10 μM and 1:3 dilution series with total of 9 doses. The final DMSO concentration was normalized to 0.2%. The assay plates were incubated at 37° C. for 4 days under 5% CO2. Then the assay plate was equilibrated at room temperature for 10 minutes. To determine cell viability, 30 μL CellTiter Glo reagent was added to each well and the assay plate was centrifuged at 1000 rpm for 30 second, incubated at room temperature for 10 min, and analyzed by detecting the luminescence using a multimode plate reader (EnVision 2105, PerkinElmer). The data was then analyzed by software Prism 7.0 from GraphPad and the dose response curves were fit using a three-parameter logistic equation to calculate IC50.

[1] = target: T2, Ikaros (protein product of gene IKZF1) (Homo sapiens, UniProt Q13422+Q96SW2); assay: Quantification of Ikaros degradation in OCI-LY10 cells (quantitative immunoblotting); conditions: 6 h treatment
T2 construct: endogenous in cells; host or cells: OCI-LY10
T2 sequence (Q13422 whole entry): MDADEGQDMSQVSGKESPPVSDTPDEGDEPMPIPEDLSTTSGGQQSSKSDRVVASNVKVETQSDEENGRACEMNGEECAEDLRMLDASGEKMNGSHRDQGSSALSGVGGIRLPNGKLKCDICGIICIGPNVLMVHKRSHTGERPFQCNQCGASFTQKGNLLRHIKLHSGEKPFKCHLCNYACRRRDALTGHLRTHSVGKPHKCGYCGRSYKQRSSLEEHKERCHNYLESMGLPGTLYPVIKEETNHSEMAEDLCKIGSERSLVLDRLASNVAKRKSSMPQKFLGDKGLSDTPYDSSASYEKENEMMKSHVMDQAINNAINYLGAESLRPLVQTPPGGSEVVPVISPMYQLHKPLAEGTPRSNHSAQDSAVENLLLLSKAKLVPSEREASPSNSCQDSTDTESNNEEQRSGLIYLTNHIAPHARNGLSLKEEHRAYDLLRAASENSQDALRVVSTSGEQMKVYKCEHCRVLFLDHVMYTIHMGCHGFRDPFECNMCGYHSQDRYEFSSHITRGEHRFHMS
T2 sequence (Q96SW2 whole entry): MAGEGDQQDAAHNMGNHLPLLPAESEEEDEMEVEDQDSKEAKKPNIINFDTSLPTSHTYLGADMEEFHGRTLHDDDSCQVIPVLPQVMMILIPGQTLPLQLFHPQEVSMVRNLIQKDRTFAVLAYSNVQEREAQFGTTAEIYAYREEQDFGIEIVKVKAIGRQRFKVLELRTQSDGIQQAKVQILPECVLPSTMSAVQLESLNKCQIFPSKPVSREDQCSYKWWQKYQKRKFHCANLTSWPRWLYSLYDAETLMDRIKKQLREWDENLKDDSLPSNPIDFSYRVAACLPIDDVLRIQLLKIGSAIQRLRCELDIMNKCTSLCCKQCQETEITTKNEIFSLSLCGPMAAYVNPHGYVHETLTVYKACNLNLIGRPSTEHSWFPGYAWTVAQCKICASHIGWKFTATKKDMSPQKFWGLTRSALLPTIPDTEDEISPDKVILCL
T2 sequence (Q16531 whole entry partner): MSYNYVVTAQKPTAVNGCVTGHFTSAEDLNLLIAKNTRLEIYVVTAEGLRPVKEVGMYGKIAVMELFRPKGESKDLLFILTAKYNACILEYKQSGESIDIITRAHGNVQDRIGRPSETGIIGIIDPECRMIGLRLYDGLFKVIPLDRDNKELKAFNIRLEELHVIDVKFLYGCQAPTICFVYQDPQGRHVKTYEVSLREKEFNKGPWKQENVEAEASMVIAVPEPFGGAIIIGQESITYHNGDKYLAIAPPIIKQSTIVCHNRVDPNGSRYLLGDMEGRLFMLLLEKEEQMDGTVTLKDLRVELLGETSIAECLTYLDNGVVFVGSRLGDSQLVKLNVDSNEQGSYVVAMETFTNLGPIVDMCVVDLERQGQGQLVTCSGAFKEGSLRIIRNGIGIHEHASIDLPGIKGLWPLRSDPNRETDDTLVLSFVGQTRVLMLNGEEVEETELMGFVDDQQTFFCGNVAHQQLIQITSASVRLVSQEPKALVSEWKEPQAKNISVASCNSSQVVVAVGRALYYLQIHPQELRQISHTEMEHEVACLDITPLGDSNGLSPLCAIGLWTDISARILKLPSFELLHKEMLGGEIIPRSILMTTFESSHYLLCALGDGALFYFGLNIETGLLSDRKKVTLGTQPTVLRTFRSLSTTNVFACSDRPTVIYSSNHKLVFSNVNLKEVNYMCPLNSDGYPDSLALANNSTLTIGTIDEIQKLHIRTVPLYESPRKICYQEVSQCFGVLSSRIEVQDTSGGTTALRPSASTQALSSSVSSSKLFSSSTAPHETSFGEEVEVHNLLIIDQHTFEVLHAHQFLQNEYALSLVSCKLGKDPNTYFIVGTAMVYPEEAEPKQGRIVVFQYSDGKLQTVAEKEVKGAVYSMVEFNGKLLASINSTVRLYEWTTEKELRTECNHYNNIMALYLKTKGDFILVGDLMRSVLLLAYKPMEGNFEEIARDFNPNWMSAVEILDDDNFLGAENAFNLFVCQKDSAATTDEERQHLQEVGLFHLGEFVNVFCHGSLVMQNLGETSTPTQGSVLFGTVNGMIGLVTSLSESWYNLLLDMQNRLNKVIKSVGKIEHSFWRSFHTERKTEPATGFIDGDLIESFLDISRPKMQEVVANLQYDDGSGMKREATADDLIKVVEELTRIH
Method: (§1) Degradation of Ikaros (protein product of gene IKZF1) and Aiolos (protein product of gene IKZF3) were determined by quantitative immunoblotting as follows. OCI-LY10 cells, 2×10^6 cells/well, were treated with listed concentrations of IRAK4 degraders or control compounds in 6 well plates for 6 h. Cells were collected, washed with cold PBS, lysed in RIPA buffer (Boston BioProducts BP-115D) with protease/phosphatase inhibitor cocktail (Roche 05892791001/Roche 04906837001) and centrifuged at 13000 RPM for 20 min to precipitate insoluble material. The supernatant fraction was diluted in SDS-PAGE loading buffer (Beyotime Bio P0015) and 20 μL of each sample was resolved on 4-12% Bis-Tris SDS-PAGE gels (Novex, WG1402BOX). Resolved samples were transferred to nitrocellulose membranes by wet electro-transfer method at 250 mV for 1.5 h. The membrane was blocked with LICOR blocking buffer (LI-COR, 927-50000) for 1 hour, washed three times with TBST (CST #99975) for 5 minutes each and incubated with primary antibody prepared in block buffer with 0.1% Tween-20 (Solarbio, P8220) at 4° C. overnight. Ikaros antibody was rabbit monoclonal D6N9Y (CST #14859), at 1:1000 dilution. Aiolos antibody was rabbit monoclonal D1C1E (CST #15103), at 1:1000 dilution. Signal was normalized to mouse anti-beta-Actin monoclonal 8H10D10 (CST #3700) used at 1:10,000 dilution. After incubation in primary antibodies, membranes were washed three times with TBST, 5 minutes each, incubated with fluorescently labeled secondary antibodies anti-rabbit IgG (Licor, 926-32211) at 1:5000 dilution; anti-mouse IgG (LI-COR, 926-68070) at 1:5000 dilution, for 1 hour at RT. After incubation in secondary, membranes were washed three times with TBST, 5 minutes each and read on LICOR Odyssey imager. Data was reported as signal for Ikaros or Aiolos relative to signal for actin, and normalized to DMSO-treated control.

[2] = target: T3, Aiolos (protein product of gene IKZF3) (Homo sapiens, UniProt Q96SW2+Q9UKT9); assay: Quantification of Aiolos degradation in OCI-LY10 cells (quantitative immunoblotting); conditions: 6 h treatment
T3 construct: endogenous in cells; host or cells: OCI-LY10
T3 sequence (Q9UKT9 whole entry): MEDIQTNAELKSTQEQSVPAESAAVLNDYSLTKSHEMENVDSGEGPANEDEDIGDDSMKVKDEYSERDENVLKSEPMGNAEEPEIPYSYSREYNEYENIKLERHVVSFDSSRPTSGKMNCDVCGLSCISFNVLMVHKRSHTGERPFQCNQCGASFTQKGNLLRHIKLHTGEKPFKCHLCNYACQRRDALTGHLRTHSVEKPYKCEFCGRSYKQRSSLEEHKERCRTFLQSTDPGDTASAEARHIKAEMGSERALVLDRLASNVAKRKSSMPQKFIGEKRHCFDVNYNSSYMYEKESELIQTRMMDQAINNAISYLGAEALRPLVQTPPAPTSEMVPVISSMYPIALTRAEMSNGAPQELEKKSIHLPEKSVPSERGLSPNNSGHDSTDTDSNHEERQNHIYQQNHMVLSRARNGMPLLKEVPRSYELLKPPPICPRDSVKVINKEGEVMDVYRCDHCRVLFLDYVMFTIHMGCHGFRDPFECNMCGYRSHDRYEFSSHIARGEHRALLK
T3 sequence (Q96SW2 whole entry): as the sequence (Q96SW2 whole entry) above
T3 sequence (Q16531 whole entry partner): as the sequence (Q16531 whole entry partner) above
Method: as §1

Structure (SMILES): CC(C)(O)c1cc2nc([C@H]3CC[C@H](N4CC5(CC(CCNc6cccc7c6C(=O)N(C6CCC(=O)NC6=O)C7=O)C5)C4)CC3)sc2cc1NC(=O)c1cccc(C(F)(F)F)n1 (single isomer, unassigned) [I-63]
- DC50 (IRAK4): < 50 nM
- IC50 (OCI-LY10 cells): < 50 nM
- DC50 [1]: < 50 nM
- DC50 [2]: < 50 nM

Structure (SMILES): COc1cc2nc([C@H]3CC[C@H](CN4CCC5(CC4)CC(Nc4cccc6c4C(=O)N(C4CCC(=O)NC4=O)C6=O)C5)CC3)sc2cc1NC(=O)c1cnn2cccnc12 (stereo partly shown) [I-34]
- DC50 (IRAK4): < 50 nM
- IC50 (OCI-LY10 cells): 50 to 100 nM
- DC50 [1]: < 50 nM
- DC50 [2]: < 50 nM

Structure (SMILES): COc1cc2nc([C@H]3CC[C@H](CN4CC5(CCC(CNc6cccc7c6C(=O)N(C6CCC(=O)NC6=O)C7=O)CC5)C4)CC3)sc2cc1NC(=O)c1cccc(C(F)(F)F)n1 (stereo partly shown) [I-20]
- DC50 (IRAK4): 50 to 100 nM
- IC50 (OCI-LY10 cells): < 50 nM
- DC50 [1]: 100 to 500 nM
- DC50 [2]: 100 to 500 nM

Structure (SMILES): CC(C)(O)c1cc2nc([C@H]3CC[C@H](CN4CC(CCNc5cccc6c5C(=O)N(C5CCC(=O)NC5=O)C6=O)C4)CC3)sc2cc1NC(=O)c1cccc(C(F)(F)F)n1 (stereo partly shown) [I-45]
- DC50 (IRAK4): < 50 nM
- IC50 (OCI-LY10 cells): 100 to 500 nM
- DC50 [1]: 100 to 500 nM
- DC50 [2]: 100 to 500 nM

Structure (SMILES): Cc1cc(F)cc(C(=O)Nc2cc3sc([C@H]4CC[C@H](CN5CC6(CC(CCNc7cccc8c7C(=O)N(C7CCC(=O)NC7=O)C8=O)C6)C5)CC4)nc3cc2C(C)(C)O)n1 (stereo partly shown) [I-33]
- DC50 (IRAK4): < 50 nM
- IC50 (OCI-LY10 cells): < 50 nM
- DC50 [1]: < 50 nM
- DC50 [2]: < 50 nM

Structure (SMILES): CN(C[C@H]1CC[C@H](c2nc3cc(C(C)(C)O)c(NC(=O)c4cccc(C(F)(F)F)n4)cc3s2)CC1)[C@H]1CC[C@H](Nc2cccc3c2C(=O)N(C2CCC(=O)NC2=O)C3=O)CC1 (stereo partly shown) [I-28]
- DC50 (IRAK4): < 50 nM
- IC50 (OCI-LY10 cells): 100 to 500 nM
- DC50 [1]: 50 to 100 nM
- DC50 [2]: < 50 nM

Structure (SMILES): Cc1cccc(C(=O)Nc2cc3sc([C@H]4CC[C@H](CN5CCC6(CC5)CC(CCNc5cccc7c5C(=O)N(C5CCC(=O)NC5=O)C7=O)C6)CC4)nc3cc2C(C)(C)O)n1 (stereo partly shown) [I-22]
- DC50 (IRAK4): 50 to 100 nM
- IC50 (OCI-LY10 cells): < 50 nM
- DC50 [1]: < 50 nM
- DC50 [2]: < 50 nM

Structure (SMILES): C[C@@H](CNc1cccc2c1C(=O)N(C1CCC(=O)NC1=O)C2=O)C1CC2(C1)CN(C[C@H]1CC[C@H](c3nc4cc(C(C)(C)O)c(NC(=O)c5cccc(C(F)(F)F)n5)cc4s3)CC1)C2 (stereo partly shown) [I-32]
- DC50 (IRAK4): < 50 nM
- IC50 (OCI-LY10 cells): 50 to 100 nM
- DC50 [1]: < 50 nM
- DC50 [2]: < 50 nM

Structure (SMILES): CN(C[C@H]1CC[C@H](c2nc3cc(C(C)(C)O)c(NC(=O)c4cccc(C(F)(F)F)n4)cc3s2)CC1)[C@H]1CC[C@H](CCNc2cccc3c2C(=O)N(C2CCC(=O)NC2=O)C3=O)CC1 (stereo partly shown) [I-27]
- DC50 (IRAK4): < 50 nM
- IC50 (OCI-LY10 cells): < 50 nM
- DC50 [1]: < 50 nM
- DC50 [2]: < 50 nM

Structure (SMILES): COc1cc2nc([C@H]3CC[C@H](CN(C)[C@H]4CC[C@]5(CC4)C[C@@H](CNc4cccc6c4C(=O)N(C4CCC(=O)NC4=O)C6=O)C5)CC3)sc2cc1NC(=O)c1cccc(C(F)(F)F)n1 (stereo partly shown) [I-21]
- DC50 (IRAK4): 100 to 500 nM
- IC50 (OCI-LY10 cells): 100 to 500 nM
- DC50 [1]: 50 to 100 nM
- DC50 [2]: < 50 nM

Structure (SMILES): CC(C)(O)c1cc2nc([C@H]3CC[C@H](CN4CC5(CC(CCNc6cccc7c6C(=O)N(C6CCC(=O)NC6=O)C7=O)C5)C4)CC3)sc2cc1NC(=O)c1cccc(C(F)(F)F)c1 (stereo partly shown) [I-53]
- DC50 (IRAK4): 100 to 500 nM
- IC50 (OCI-LY10 cells): < 50 nM
- DC50 [1]: < 50 nM
- DC50 [2]: < 50 nM

Structure (SMILES): Cc1cccc(C(=O)Nc2cc3sc([C@H]4CC[C@H](CN(C)[C@H]5CC[C@H](Nc6cccc7c6C(=O)N(C6CCC(=O)NC6=O)C7=O)CC5)CC4)nc3cc2C(C)(C)O)n1 (stereo partly shown) [I-23]
- DC50 (IRAK4): < 50 nM
- IC50 (OCI-LY10 cells): 100 to 500 nM
- DC50 [1]: 100 to 500 nM
- DC50 [2]: < 50 nM

Structure (SMILES): CC(C)(O)c1cc2nc([C@H]3CC[C@H](CN4CC5(CCC(CNc6cccc7c6C(=O)N(C6CCC(=O)NC6=O)C7=O)CC5)C4)CC3)sc2cc1NC(=O)c1cccc(C(F)(F)F)n1 (stereo partly shown) [I-30]
- DC50 (IRAK4): < 50 nM
- IC50 (OCI-LY10 cells): 50 to 100 nM
- DC50 [1]: < 50 nM
- DC50 [2]: < 50 nM

Structure (SMILES): CC(C)(O)c1cc2nc([C@H]3CC[C@H](CN4CC5(CC(CCNc6cccc7c6C(=O)N(C6CCC(=O)NC6=O)C7=O)C5)C4)CC3)sc2cc1NC(=O)c1cccc(C(F)F)n1 (stereo partly shown) [I-47]
- DC50 (IRAK4): < 50 nM
- IC50 (OCI-LY10 cells): < 50 nM
- DC50 [1]: < 50 nM
- DC50 [2]: < 50 nM

Structure (SMILES): COc1cc2nc([C@H]3CC[C@H](CN4CC5(CC(CCNc6cccc7c6C(=O)N(C6CCC(=O)NC6=O)C7=O)C5)C4)CC3)sc2cc1-n1ccc2ccccc2c1=O (stereo partly shown) [I-42]
- DC50 (IRAK4): 50 to 100 nM
- IC50 (OCI-LY10 cells): < 50 nM
- DC50 [1]: < 50 nM
- DC50 [2]: < 50 nM

Structure (SMILES): C[C@H](CNc1cccc2c1C(=O)N(C1CCC(=O)NC1=O)C2=O)C1CC2(C1)CN(C[C@H]1CC[C@H](c3nc4cc(C(C)(C)O)c(NC(=O)c5cccc(C(F)(F)F)n5)cc4s3)CC1)C2 (stereo partly shown) [I-31]
- DC50 (IRAK4): < 50 nM
- IC50 (OCI-LY10 cells): < 50 nM
- DC50 [1]: < 50 nM
- DC50 [2]: < 50 nM
